Columns and labels:
[1] = test system: EGF-stimulated Akt phosphorylation; assay: Modulation of EGF-stimulated Akt phosphorylation in COS-7 cells; assay type: cell-based; conditions: wortmannin 100 nM, 30 min pretreatment; 10 ng/ml EGF, 10 min
Description: (§1) COS-7 cells (from the American Type Culture Collection) were cultured at 37°C in a humidified atmosphere of 95% air, 5% CO2, in DMEM supplemented with 10% FBS, 100 μg/ml streptomycin, and 100 units/ml penicillin (COS-7 growth medium). Transient transfections were performed using LipofectAMINE (Life Technologies: Gaithersburg, MD) as described previously ([27]). Cells were seeded at 8 × 10^5 cells/10-cm dish in COS-7 medium and cultured for 3 days before transfection. COS-7 cells were transfected in 5 ml/dish OptiMEM containing 10 μg/ml LipofectAMINE with empty vector, pcDNA3 encoding the HA-CRF1R or the HA-CRF1R-Δ386 mutant. […] After replacing the transfection medium with fresh growth medium, transfected COS-7 cells were cultured for 1 day. […]
(§2) The protocols for measuring total and phosphorylated ERK1/2, c-Src, PYK2, Akt, and EGFR have been previously published ([28], [29]). […] The labeled bands were quantified using the Quantity One 4.6.3 software program (Bio-Rad).
Figure 8 Involvement of the PI3K pathway in CRF-stimulated ERK1/2 phosphorylation. […] Total cell lysates were separated by SDS-PAGE and analyzed by immunoblotting with anti-p-Akt Ser^473 (A) or anti-p-ERK1/2 Thr^202/Tyr^204 (A–C), as described in Materials and Methods. Akt and ERK1/2 phosphorylation were quantitated by densitometry, and mean values were plotted from three to five independent experiments. […]

Src = assay: CRF-induced Src phosphorylation at Tyr416 in COS-7 cells expressing HA-CRF1R; assay type: cell-based; conditions: 100 nM wortmannin, 30 min pretreatment; 100 nM CRF, 5 min
Description: as §1, §2
Figure 5 Role of Src tyrosine kinase in CRF-stimulated ERK1/2 phosphorylation. […] Total cell lysates were separated by SDS-PAGE and analyzed by immunoblotting with anti-p-Src Tyr^416 (A,B) or anti-p-ERK1/2 Thr^202/Tyr^204 (C–E), as described in Materials and Methods. Src, PYK2, and ERK1/2 phosphorylation were quantitated by densitometry, and mean values were plotted from three to five independent experiments. […]

## COC[C@H]1OC(=O)c2coc3c2[C@@]1(C)C1=C(C3=O)[C@@H]2CCC(=O)[C@@]2(C)C[C@H]1OC(C)=O [wortmannin]
[1]
  effect on EGF-stimulated Akt phosphorylation: abolished the stimulatory action of EGF on Akt
Src
  effect on CRF-induced Src Tyr416 phosphorylation: did not alter CRF-induced phosphorylation of Src at Tyr^416

From PMC6921279 (Frontiers in Endocrinology, 2019)
